In article PMC11490426, “Structure-activity relationship of amino acid analogs to probe the binding pocket of sodium-coupled neutral amino acid transporter SNAT2” (Amino Acids, 2024):
Counter-ions that a name gives are not always drawn.

How the values were obtained:
SNAT2 [1] = target: T1, SNAT2 (Homo sapiens, UniProt Q96QD8); assay: FLIPR membrane potential (FMP) assay in PC-3 cells; assay type: cell-based; conditions: hyperosmotically treated PC-3 cells
T1 construct: hyperosmotically treated PC-3 cells, known to upregulate SNAT2; endogenous in cells; host or cells: PC-3 prostate cells exposed to hyperosmotic medium for 24 h
T1 sequence (Q96QD8 1-506): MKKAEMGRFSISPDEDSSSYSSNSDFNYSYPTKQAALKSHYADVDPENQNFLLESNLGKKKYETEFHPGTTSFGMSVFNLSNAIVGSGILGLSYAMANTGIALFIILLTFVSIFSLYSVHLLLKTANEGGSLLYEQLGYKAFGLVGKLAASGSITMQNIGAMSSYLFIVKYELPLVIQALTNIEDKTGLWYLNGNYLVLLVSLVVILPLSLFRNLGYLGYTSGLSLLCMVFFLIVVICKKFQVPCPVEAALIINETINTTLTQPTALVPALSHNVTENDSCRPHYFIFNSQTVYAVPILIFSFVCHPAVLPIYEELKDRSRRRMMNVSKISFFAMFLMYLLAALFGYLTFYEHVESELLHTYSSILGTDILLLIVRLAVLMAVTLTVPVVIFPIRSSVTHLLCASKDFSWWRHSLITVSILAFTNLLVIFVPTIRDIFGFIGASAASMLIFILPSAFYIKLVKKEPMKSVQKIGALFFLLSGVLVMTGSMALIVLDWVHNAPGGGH
Procedure: PC-3 cells exposed to hyperosmotic media for 24 h were used to identify SNAT2 substrates in the FMP assay. The media was aspirated, and the cells were preincubated in HBSS + for 10 min at 37 °C and 220 rpm. Then the buffer was aspirated, and cells were then incubated in 50 µL HBSS + containing 0.55 mg ⋅ mL^− 1 (1x) FMP probe (Blue component A from Molecular Devices, San Jose, CA, USA) for 30 min at 37 °C and 220 rpm. […] First, the baseline was measured for 30 s by measuring each well every 3 s. The plate was then removed from the reader and 50 µL of substrate solutions containing 0.55 mg ⋅ mL^− 1 FMP probe was added. These solutions were prepared by mixing equal parts solution containing 2x FMP probe and solutions containing 4x the final concentration of substrate. […] Following this, the baseline of the next column was measured and followed the same procedure as just described.
For the FMP data, the baseline was defined as the mean fluorescence of the first data point before substrate addition. The baseline of each well was then subtracted from the data point to get the ΔF. Plotting ΔF as a function of time and calculating the area under the curve (AUC) after substrate addition was used as a measure of SNAT2 activity.

SNAT2 [2] = target: T1, SNAT2; assay: Inhibition of SNAT2-mediated 3H-glycine uptake in hyperosmotically treated PC-3 cells; assay type: cell-based
Procedure: Where Y is the % uptake, X is the concentration of the inhibitor, Top and Bottom are the top and bottom plateau respectively, and IC50 is the half maximal inhibitory concentration. These studies were performed in at least 3 independent cell passages (n = 3) and a curve was defined for each independent passage. However, for each compound, the top and bottom were constrained to be the same amongst the different cell passages.

[3] = Stability in aqueous solution by HPLC-UV; assay type: physicochemical; conditions: 1 mM in ultrapure water, room temperature, over 3 days
From the text: The resulting chromatograms were integrated and the area under the curve (AUC) of the standard samples was used to generate standard curves to determine the concentration of AAs and analogs in the cell samples. The pooled standard curves and example chromatograms can be seen in the SI (Figs. S2, S3). Amino acid levels detected in the background cell samples were subtracted from the other cell samples. L-Alanine benzyl ester only generated a peak with an equal retention time as L-alanine. It was assessed that the addition of OPA reagent increased the hydrolysis of the ester, thus only creating the L-alanine OPA derivative. […] Thus, the L-alanine peak was used to measure the presence of L-alanine benzyl ester in samples.
Fig. S4 HPLC-UV chromatograms of L-alanine benzyl ester and benzyl alcohol dissolved in ultrapure water. The samples were analyzed using a Waters 2695 HPLC system connected to a Waters 2487 Dual λ Absorbance Detector (Waters Corporation, MA, USA). The peaks were separated using a Sunfire C18 column (4.6 x 150 mm, 3.5 µm, Waters Corporation, MA, USA) at 45 °C and with a 0.7 ml/min flow of 70% mobile phase A (90/10% H2O/MeCN + 0.1% trifluoroacetic acid (TFA)) and 30% mobile phase B (10/90% H2O/MeCN + 0.1% TFA). 10 µL samples were injected and the peaks were detected at 254 nm. […]

SNAT2 [4] = target: T1, SNAT2; assay: Intracellular amino acids and analogs quantified by OPA derivatization and HPLC-Fl after uptake in PC-3 cells; assay type: cell-based; conditions: 0.4 mM compound, 30 min uptake, pH 7.4
Procedure: Derivatization of AAs and analogs using o-phthalaldehyde (OPA) and 2-mercaptoethanol (2-ME) to make fluorescent derivatives was used to measure the intracellular amounts of AAs and analogs following uptake in hyperosmotically treated PC-3 cells. Before starting the experiment, the medium was aspirated, and the cells were preincubated in HBSS + for 15 min at 37 °C and 220 rpm. The cells were then incubated with 500 µL HBSS+ (background) or HBSS + containing AAs or analogs at given concentrations for 30 min at 37 °C and 220 rpm. After aspirating the donor solutions, the cells were washed thrice with 500 µL of ice-cold PBS while keeping the cells on ice. 200 µL of ice-cold 1x-trypsin was added to each well and allowed to distribute for 20–30 min while keeping the cells on ice. The plate was then transferred to an incubating microplate shaker at 37 °C and 220 rpm for about 8 min or until the cells had detached. 300 µL of ice-cold PBS was added to each well to resuspend the cells and transfer them to centrifuge tubes. The cells were centrifuged at 1000 G for 5 min (4 °C), the supernatant was removed, the cells were resuspended in 300 µL ice-cold PBS, and then centrifuged again at 1000 G for 5 min (4 °C). After removing the supernatant, the cell pellet was lysed by adding 100 µL of 80% methanol (20% ultrapure water) and placing the tubes in an ultrasonic bath for 10 min. The tubes were then centrifuged at 15,000 G for 15 min (4 °C) and the resulting supernatant was used for analysis.
The OPA reagent was prepared by spiking with 2 µL 2-ME per mL of OPA regent and was considered stable for use within one day. 10 µL of the cell samples or standards containing a mixture of the AAs and analogs of interest were placed in HPLC vials with 100 µL inserts. […] The autosampler kept the samples at 10 °C and the pretreatment function was used to automatically mix the samples with 10 µL of the OPA reagent and wait 4 min before loading 2 µL onto a YMC-Triart C18 column (75 × 3.0 mm, 1.9 μm, Mikrolab Aarhus, Viby J, Denmark). […] The fluorescence detector was set to excite at 350 nm and detect at 450 nm.
The resulting chromatograms were integrated and the area under the curve (AUC) of the standard samples was used to generate standard curves to determine the concentration of AAs and analogs in the cell samples. […] Amino acid levels detected in the background cell samples were subtracted from the other cell samples.

PC-3 cells = assay: CellTiter-Glo viability assay; assay type: cell-based, human; conditions: 20 mM, after 10 min of exposure, hyperosmotically treated PC-3 cells
Procedure: ^3H-glycine uptake in hyperosmotically treated PC-3 cells was performed as previously described (Jakobsen et al. [2023]). 5-minute uptake of 0.5 µCi ⋅ mL^− 1 3H-glycine (11.1 nM) was used, and each uptake was normalized to the uptake obtained in a control situation (31.2 ± 5.7 fmol ⋅ cm^− 2 ⋅ min^− 1) without subtracting the background uptake (2.62 ± 0.67 fmol ⋅ cm^− 2 ⋅ min^− 1). Compounds that inhibited uptake by more than 20% at the highest tested concentrations were tested in the CellTiter-Glo viability assay (Promega, Madison, WI, USA), to rule out that the observed inhibition was not caused by reduced cell viability (Fig. S1 in Supplementary Information SI).
Fig. S1 Cell viability of hyperosmotically treated PC-3 cells after 10 min incubation with various amino acids and analogs using the CellTiter-Glo assay. […] The plate was placed in a CLARIOstar® Plus plate reader from BMG LABTECH (Ortenberg, Germany) at room temperature and was then shaken for 2 minutes at 220 rpm. Luminescence was measured after 0, 5, 10, and 15 minutes. Background luminescence (obtained from adding CellTiter-Glo reagent to HBSS+ containing wells without cells) was subtracted from the sample luminescence and normalized to control wells only exposed to HBSS+ to determine the % viability. […] Statistically significant differences from the control detected by one-way ANOVA are shown (*: p < 0.05).

AUC of fluorescence response-time curve (SNAT2 [1]; 5 mM compound): 8.1 ± 1.4 10^5 RFU ∙ s
AUC of fluorescence response-time curve (SNAT2 [1]; 10 mM compound): -1.4 ± 3.2 10^5 RFU ∙ s
AUC, % of 10 mM L-alanine (SNAT2 [1]; 10 mM compound): -6.6 ± 14%
IC50 (SNAT2 [2]; hyperosmotically treated PC-3 cells, 5 min uptake of 11.1 nM 3H-glycine, pH 7.4, read-out: IC50): 390 µM
stability in aqueous solution [3]: stability was confirmed
fold change of intracellular accumulation in absence vs presence of 10 mM L-glutamine (SNAT2 [4]): 6.7 fold
SMILES: C[C@H](N)C(=O)OCc1ccccc1 [L-Alanine benzyl ester, L-alanine benzyl ester hydrochloride]
response in the FMP assay (stimulation of SNAT2 activity) (SNAT2 [1]; result in words): little or no stimulation of SNAT2 activity
inhibition of 3H-glycine uptake at different pH levels (SNAT2 [2]; pH 6.8, 7.4 and 8.0, 0.4 mM L-alanine benzyl ester or 0.2 mM L-alanine, two-way ANOVA): no significant differences in inhibition at the different pH levels
decrease in cell viability (PC-3 cells): 23%
